Experimental data as given in patent US20100298141A1, “SUBSTITUTED PYRIDINE N-OXIDE HERBICIDES” (E. I. DU PONT DE NEMOURS AND COMPANY, priority 2007, published 2010).

How the values were obtained:
mustard = assay: Test F preemergence test; assay type: in vivo, Brassica nigra; conditions: scale 0 to 100
Method in brief: (§1)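 Compounds in a non-phytotoxic solvent formulation with surfactant were applied before emergence after sowing, or, for sugarcane, also postemergence. Evaluation was visual, against controls, after 14 to 21 greenhouse days.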

blackgrass = assay: Test C pre-/postemergence test; assay type: in vivo, Alopecurus myosuroides
Method in brief: (§2)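 Seeds were planted and treated preemergence with test chemical in a non-phytotoxic solvent mixture containing surfactant. Postemergence applications of the same formulation went onto plants 2 to 18 cm tall (1- to 4-leaf stage). A dash marks no test result.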

prickly sida = assay: Test F preemergence test; assay type: in vivo, Sida spinosa; conditions: scale 0 to 100
Method in brief: as §1

Surinam grass = assay: Test F preemergence test; assay type: in vivo, Brachiaria decumbens; conditions: scale 0 to 100
Method in brief: as §1

quackgrass = assay: Test F preemergence test; assay type: in vivo, Elytrigia repens; conditions: scale 0 to 100
Method in brief: as §1

Virginia dayflower = assay: Test F preemergence test; assay type: in vivo, Commelina virginica; conditions: scale 0 to 100
Method in brief: as §1

green foxtail = assay: Test C pre-/postemergence test; assay type: in vivo, Setaria viridis
Method in brief: as §2

dallisgrass = assay: Test F preemergence test; assay type: in vivo, Paspalum dilatatum; conditions: scale 0 to 100
Method in brief: as §1

corn = assay: Test A pre-/postemergence greenhouse test; assay type: in vivo, Zea mays; conditions: for Corn plant response rating: 0 to 100 scale
Method in brief: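 Test compounds in non-phytotoxic solvent with surfactant were applied as a preemergence soil spray to seeded loam/sand pots and, concurrently, postemergence to plants at 2–10 cm, one- to two-leaf stage. About ten days in greenhouse, then injury visually rated against untreated controls.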

bermudagrass = assay: Test F preemergence test; assay type: in vivo, Cynodon dactylon; conditions: scale 0 to 100
Method in brief: as §1

broadleaf signalgrass = assay: Test F preemergence test; assay type: in vivo, Brachiaria platyphylla; conditions: scale 0 to 100
Method in brief: as §1

common mallow = assay: Test F preemergence test; assay type: in vivo, Malva sylvestris; conditions: scale 0 to 100
Method in brief: as §1

common ragweed = assay: Test C pre-/postemergence test; assay type: in vivo, Ambrosia elation
Method in brief: as §2

kochia = assay: Test F preemergence test; assay type: in vivo, Kochia scoparia; conditions: scale 0 to 100
Method in brief: as §1

[1] = 31 g ai/ha, Preemergence, scale 0 to 100
[2] = 62 g ai/ha, preemergence, scale 0 (no effect) to 100 (complete control)
[3] = preemergence, 125 g ai/ha, scale 0 (no effect) to 100 (complete control)

Cn1nc(C(F)(F)F)c(CS(=O)(=O)c2cccc[n+]2[O-])c1OC(F)F [Compound 4]
70: Blackgrass plant response rating (blackgrass; [1]) | Ragweed plant response rating (common ragweed; [1])
30: Corn plant response rating (corn; Postemergence, 125 g ai/ha, 0 is no effect, 100 is complete control)
80: Blackgrass plant response rating (blackgrass; [2]) | Dallisgrass plant response rating (dallisgrass; 62 g ai/ha, Preemergence) | Plant response rating, Corn (corn; Preemergence, 500 g ai/ha, 0 to 100 scale where 0 is no effect and 100 is complete control) | Signalgrass plant response rating (broadleaf signalgrass; 62 g ai/ha, Preemergence)
35: Plant response rating, Quackgrass (quackgrass; Preemergence, 31 g ai/ha) | Plant response rating, Dallisgrass (dallisgrass; Preemergence, 31 g ai/ha) | Plant response rating, Signalgrass (broadleaf signalgrass; Preemergence, 31 g ai/ha)
95: Blackgrass plant response rating (blackgrass; [3])
90: Dayflower plant response rating (Virginia dayflower; 62 g ai/ha, Preemergence) | Plant response rating, Dayflower (Virginia dayflower; Preemergence, 31 g ai/ha)
60: Corn plant response rating (corn; Postemergence, 500 g ai/ha, 0 is no effect, 100 is complete control)
98: Black Mustard plant response rating (mustard; 62 g ai/ha, Preemergence) | Plant response rating, Black Mustard (mustard; Preemergence, 31 g ai/ha) | Plant response rating, Bermudagrass (bermudagrass; Preemergence, 16 g ai/ha)
75: Quackgrass plant response rating (quackgrass; 62 g ai/ha, Preemergence) | Kochia plant response rating (kochia; 62 g ai/ha, Preemergence) | Plant response rating, Kochia (kochia; Preemergence, 31 g ai/ha)
20: Plant response rating, Black Mustard (mustard; Preemergence, 16 g ai/ha) | Plant response rating, Surinam Grass (Surinam grass; 16 g ai/ha, preemergence) | Corn plant response rating (corn; Preemergence, 125 g ai/ha, 0 no effect, 100 complete control) | Plant response rating, Bermudagrass (bermudagrass; 8 g ai/ha, preemergence)
100: Plant response rating (0 to 100), Blackgrass (blackgrass; Preemergence, 250 g ai/ha) | Plant response rating, Surinam Grass (Surinam grass; Preemergence, 31 g ai/ha) | Foxtail, Green plant response rating (green foxtail; [1]) | Foxtail, Green plant response rating (green foxtail; [2]) | Plant response rating (0 to 100), Foxtail, Green (green foxtail; Preemergence, 250 g ai/ha) | Foxtail, Green plant response rating (green foxtail; [3]) | Bermudagrass plant response rating (bermudagrass; 62 g ai/ha, Preemergence) | Plant response rating, Bermudagrass (bermudagrass; Preemergence, 31 g ai/ha) | Ragweed plant response rating (common ragweed; [2]) | Plant response rating (0 to 100), Ragweed (common ragweed; Preemergence, 250 g ai/ha) | Ragweed plant response rating (common ragweed; [3])
0: Plant response rating, Black Mustard (mustard; 8 g ai/ha, preemergence) | Plant response rating, Prickly Sida (prickly sida; 8 g ai/ha, preemergence) | Prickly Sida plant response rating (prickly sida; 62 g ai/ha, Preemergence) | Plant response rating, Prickly Sida (prickly sida; Preemergence, 16 g ai/ha) | Plant response rating, Prickly Sida (prickly sida; Preemergence, 31 g ai/ha) | Plant response rating, Surinam Grass (Surinam grass; 8 g ai/ha, preemergence) | Plant response rating, Quackgrass (quackgrass; 8 g ai/ha, preemergence) | Plant response rating, Quackgrass (quackgrass; Preemergence, 16 g ai/ha) | Plant response rating, Dayflower (Virginia dayflower; 8 g ai/ha, preemergence) | Plant response rating, Dayflower (Virginia dayflower; Preemergence, 16 g ai/ha) | Plant response rating, Dallisgrass (dallisgrass; 8 g ai/ha, preemergence) | Plant response rating, Dallisgrass (dallisgrass; Preemergence, 16 g ai/ha) | Plant response rating, Signalgrass (broadleaf signalgrass; 8 g ai/ha, preemergence) | Plant response rating, Mallow (common mallow; 8 g ai/ha, preemergence) | Mallow plant response rating (common mallow; 62 g ai/ha, Preemergence) | Plant response rating, Mallow (common mallow; Preemergence, 16 g ai/ha) | Plant response rating, Mallow (common mallow; Preemergence, 31 g ai/ha) | Plant response rating, Kochia (kochia; 8 g ai/ha, preemergence) | Plant response rating, Kochia (kochia; Preemergence, 16 g ai/ha)
15: Plant response rating, Signalgrass (broadleaf signalgrass; 16 g ai/ha, preemergence)
